Experimental data published in patent US20260265246A1 (ICAHN SCHOOL OF MEDICINE AT MOUNT SINAI, priority 2021, published 2026).
Read-outs that look alike come from different tables or passages of the source.

Key:
5HT2A receptor [1] = target: T1, 5HT2A receptor (Homo sapiens, UniProt P28223); test: biochemical; assay type: binding; set-up: expressed in transfected cells; crude membranes
5HT2A receptor [2] = target: T1, 5HT2A receptor; test: cell-based; set-up: expressed in transfected cells; host or cells: HEK293T cells, transient co-transfection; details: HEK-293T, BRET2 Gαq dissociation, HEK293T cells, normalized to 5-HT; read-out: 5HT2A Gq Emax (%)
5HT2A receptor [3] = target: T1, 5HT2A receptor; test: cell-based; set-up: expressed in transfected cells; host or cells: HEK293T cells, transient co-transfection; details: HEK-293T, BRET1 beta-arrestin2 recruitment, HEK293T cells, normalized to 5-HT; read-out: 5HT2A β-Arr Emax (%)
[4] = 5HT2A Ki (nM), secondary binding assay, Cheng-Prusoff
[5] = 5HT2A Ki (nM), secondary radioligand binding, Ki from IC50 by Cheng-Prusoff

T1 sequence (P28223 whole entry): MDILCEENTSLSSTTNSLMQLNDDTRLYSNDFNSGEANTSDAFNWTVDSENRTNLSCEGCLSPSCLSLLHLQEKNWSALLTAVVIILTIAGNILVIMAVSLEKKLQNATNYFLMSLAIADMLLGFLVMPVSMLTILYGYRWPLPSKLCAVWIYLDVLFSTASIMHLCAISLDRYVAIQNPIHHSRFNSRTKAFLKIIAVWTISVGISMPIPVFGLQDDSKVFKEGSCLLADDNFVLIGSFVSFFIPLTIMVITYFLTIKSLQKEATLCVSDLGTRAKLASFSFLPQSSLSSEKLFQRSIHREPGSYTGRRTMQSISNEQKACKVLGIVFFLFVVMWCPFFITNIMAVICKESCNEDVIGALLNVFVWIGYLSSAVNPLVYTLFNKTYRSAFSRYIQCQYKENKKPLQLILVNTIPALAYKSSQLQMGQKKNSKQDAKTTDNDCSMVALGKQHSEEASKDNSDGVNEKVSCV

Row | Compound | Ki (5HT2A receptor [1]; [4]) [nM] | Ki (5HT2A receptor [1]; [5]) [nM] | also measured
1 | CCCN1CCC=C(c2n[nH]c3c(Cl)ccc(F)c23)C1 [Example 177, 7-chloro-4-fluoro-3-(1-propyl-1,2,5,6-tetrahydropyridin-3-yl)-1H-indazole] | 1830 |  | 
2 | Fc1cccc2c(C34CNCCC3C4(F)F)n[nH]c12 (stereo not drawn) [Example 190, 3-(7,7-difluoro-3-azabicyclo[4.1.0]heptan-1-yl)-7-fluoro-1H-indazole] | 5370 |  | 
3 | O=C(O)c1cccc2c(C3=CCCN(Cc4ccccc4)C3)c[nH]c12 [Example 74, 3-(1-benzyl-1,2,5,6-tetrahydropyridin-3-yl)-1H-indole-7-carboxylic acid] |  | > 10000 | 
4 | Cc1cccc2c(C3=CCN(C)CCC3)n[nH]c12 [Example 205, 7-methyl-3-(1-methyl-2,5,6,7-tetrahydro-1H-azepin-4-yl)-1H-indazole] | 217 |  | 
5 | NC1CCC=C(c2n[nH]c3c(Cl)cccc23)C1 (stereo not drawn) [Example 169, 3-(7-chloro-1H-indazol-3-yl)cyclohex-3-en-1-amine] | > 10000 |  | 
6 | Clc1cccc2c(C3CN4CCC3CC4)c[nH]c12 (stereo not drawn) [Example 251, 3-(7-chloro-1H-indol-3-yl)quinuclidine] | 1100 |  | 
7 | CN1CCC=C(c2c[nH]c3cc(-c4ccccc4)ccc23)C1 [Example 40, 3-(1-methyl-1,2,5,6-tetrahydropyridin-3-yl)-6-phenyl-1H-indole] |  | 1330 | 
8 | Cc1cccc2c(C34CNCCC3C4)n[nH]c12 (stereo not drawn) [Example 193, 3-(3-azabicyclo[4.1.0]heptan-1-yl)-7-methyl-1H-indazole] | > 10000 |  | 
9 | CCCN1CCOC(c2c[nH]c3c(Cl)cccc23)C1 (stereo not drawn) [Example 247, 2-(7-chloro-1H-indol-3-yl)-4-propylmorpholine] | 2560 |  | 
10 | Clc1cc(Cl)c2[nH]cc(C3CNC3)c2c1 [Example 266, 3-(azetidin-3-yl)-5,7-dichloro-1H-indole] | 244 |  | 
11 | COc1cccc2c(C3=CCCN(C)C3)n[nH]c12 [Example 109, 7-methoxy-3-(1-methyl-1,2,5,6-tetrahydropyridin-3-yl)-1H-indazole] |  | > 10000 | 
12 | CN(C)C1CCC=C(c2n[nH]c3c(Cl)cccc23)C1 (stereo not drawn) [Example 170, 3-(7-chloro-1H-indazol-3-yl)-N,N-dimethylcyclohex-3-en-1-amine] | > 10000 |  | 
13 | N#Cc1cccc2c(C34CNCC3C4(F)F)n[nH]c12 (stereo not drawn) [Example 202, 3-(6,6-difluoro-3-azabicyclo[3.1.0]hexan-1-yl)-1H-indazole-7-carbonitrile] | > 10000 |  | 
14 | COc1ccc2[nH]nc(C3=CCCNC3)c2c1 [Example 87, 5-methoxy-3-(1,2,5,6-tetrahydropyridin-3-yl)-1H-indazole] |  |  | Emax (5HT2A receptor [2]): 84.2%; Emax (5HT2A receptor [3]): 80%
15 | CCCNC1CCC=C(c2n[nH]c3c(Cl)cccc23)C1 (stereo not drawn) [Example 171, 3-(7-chloro-1H-indazol-3-yl)-N-propylcyclohex-3-en-1-amine] | > 10000 |  | 
16 | CN1CC=C(c2n[nH]c3c(Cl)cccc23)CC1 [Example 239, 7-chloro-3-(1-methyl-1,2,3,6-tetrahydropyridin-4-yl)-1H-indazole] | 603 |  | 
17 | Cc1cccn2c(C3=CCCNC3)cnc12 [Example 112, 8-methyl-3-(1,2,5,6-tetrahydropyridin-3-yl)imidazo[1,2-a]pyridine] |  | 9040 | 
18 | CN1CCC=C(c2c[nH]c3ccc(-c4ccccc4)cc23)C1 [Example 28, 3-(1-methyl-1,2,5,6-tetrahydropyridin-3-yl)-5-phenyl-1H-indole] |  | 498 | 
19 | CC(C)c1ccc2c(C3=CCCN(C)C3)c[nH]c2c1 [Example 34, 6-isopropyl-3-(1-methyl-1,2,5,6-tetrahydropyridin-3-yl)-1H-indole] |  | 486 | 
20 | Cc1cnc2[nH]cc(C3=CCCNC3)c2c1 [Example 1, 5-methyl-3-(1,2,5,6-tetrahydropyridin-3-yl)-1H-pyrrolo[2,3-b]pyridine] |  | 1720 | 
21 | Cc1cnc2[nH]cc(C3=CCCN(C)C3)c2c1 [Example 5, 5-methyl-3-(1-methyl-1,2,5,6-tetrahydropyridin-3-yl)-1H-pyrrolo[2,3-b]pyridine] |  | 717 | 
22 | Cc1cccc2c(N3CCN(C)CC3)n[nH]c12 [Example 234, 7-methyl-3-(4-methylpiperazin-1-yl)-1H-indazole] | 259 |  | 
23 | COc1ccc2c(C3=CCCNC3)c[nH]c2c1 [Example 35, 6-methoxy-3-(1,2,5,6-tetrahydropyridin-3-yl)-1H-indole] |  | > 10000 | 
24 | Cc1cccc2c(C34CNCC3C4(F)F)n[nH]c12 (stereo not drawn) [Example 200] | > 10000 |  | 
25 | CN1CCC(c2n[nH]c3c(Cl)cccc23)C1 (stereo not drawn) [Example 222, 7-chloro-3-(1-methylpyrrolidin-3-yl)-1H-indazole] | 6980 |  | 

Row | Compound | Ki (5HT2A receptor [1]; [4]) [nM] | Ki (5HT2A receptor [1]; [5]) [nM] | also measured
26 | CN1CCC=C(c2c[nH]c3c(C(=O)O)cccc23)C1 [Example 57, 3-(1-methyl-1,2,5,6-tetrahydropyridin-3-yl)-1H-indole-7-carboxylic acid] |  | > 10000 | 
27 | CN1CCC=C(c2n[nH]c3cc(C#N)ccc23)C1 [Example 96, 3-(1-methyl-1,2,5,6-tetrahydropyridin-3-yl)-1H-indazole-6-carbonitrile] |  | 5470 | 
28 | Clc1cccc2c(C3=CCOCC3)n[nH]c12 [Example 220, 7-chloro-3-(3,6-dihydro-2H-pyran-4-yl)-1H-indazole] | > 10000 |  | 
29 | Clc1cccc2c(C3=CCCN(C4COC4)C3)n[nH]c12 [Example 178, 7-chloro-3-(1-(oxetan-3-yl)-1,2,5,6-tetrahydropyridin-3-yl)-1H-indazole] | > 10000 |  | 
30 | N#Cc1cccc2c(N3CCNCC3)n[nH]c12 [Example 231, 3-(piperazin-1-yl)-1H-indazole-7-carbonitrile] | 3010 |  | 
31 | N#Cc1cccc2c(C34CNCCC3C4(F)F)n[nH]c12 (stereo not drawn) [Example 192, 3-(7,7-difluoro-3-azabicyclo[4.1.0]heptan-1-yl)-1H-indazole-7-carbonitrile] | > 10000 |  | 
32 | Clc1cccc2c(C3=CCCN(C4CCC4)C3)n[nH]c12 [Example 174, 7-chloro-3-(1-cyclobutyl-1,2,5,6-tetrahydropyridin-3-yl)-1H-indazole] | 9760 |  | 
33 | Cc1cccc2c(C3=CCNCCC3)n[nH]c12 [Example 204, 7-methyl-3-(2,5,6,7-tetrahydro-1H-azepin-4-yl)-1H-indazole] | 158 |  | 
34 | CCCc1cccc2c(C3CCCN(C)C3)c[nH]c12 (stereo not drawn) [Example 235, 3-(1-methylpiperidin-3-yl)-7-propyl-1H-indole] | 5550 |  | 
35 | CC(C)c1cccc2c(C3=CCCN(Cc4ccccc4)C3)c[nH]c12 [Example 70, 3-(1-benzyl-1,2,5,6-tetrahydropyridin-3-yl)-7-(propan-2-yl)-1H-indole] |  | 2050 | 
36 | CC(C)(C)c1cccc2c(C3=CCCN(Cc4ccccc4)C3)c[nH]c12 [Example 72, 3-(1-benzyl-1,2,5,6-tetrahydropyridin-3-yl)-7-tert-butyl-1H-indole] |  | 734 | 
37 | Cc1cc(Br)cc2c(C3CNC3)c[nH]c12 [Example 265, 3-(azetidin-3-yl)-5-bromo-7-methyl-1H-indole] | 217 |  | 
38 | CN1CC2C=C(c3n[nH]c4c(Cl)cccc34)C1CC2 (stereo not drawn) [Example 224, 6-(7-chloro-1H-indazol-3-yl)-2-methyl-2-azabicyclo[2.2.2]oct-5-ene] | 8880 |  | 
39 | CC(C)c1cccc2c(C3=CCCN(C)C3)c[nH]c12 [Example 54, 7-isopropyl-3-(1-methyl-1,2,5,6-tetrahydropyridin-3-yl)-1H-indole] |  | 510 | 
40 | Clc1cccn2c(C3=CCCNC3)cnc12 [Example 110, 8-chloro-3-(1,2,5,6-tetrahydropyridin-3-yl)imidazo[1,2-a]pyridine] |  | > 10000 | 
41 | Clc1cccc2c(-c3cccnc3)n[nH]c12 [Example 214, 7-chloro-3-(pyridin-3-yl)-1H-indazole] | > 10000 |  | 
42 | CC(C)c1ccc2c(C3=CCCNC3)c[nH]c2c1 [Example 33, 6-isopropyl-3-(1,2,5,6-tetrahydropyridin-3-yl)-1H-indole] |  | 1260 | 
43 | CN1CCN(c2n[nH]c3c(C#N)cccc23)CC1 [Example 233, 3-(4-methylpiperazin-1-yl)-1H-indazole-7-carbonitrile] | 4830 |  | 
44 | CN1CCC(c2n[nH]c3c(Cl)cccc23)CC1 [Example 240, 7-chloro-3-(1-methylpiperidin-4-yl)-1H-indazole] | 378 |  | 
45 | COc1cccc2c(C3=CCCNC3)c[nH]c12 [Example 51, 7-methoxy-3-(1,2,5,6-tetrahydropyridin-3-yl)-1H-indole] |  | > 10000 | 
46 | CCCN1CCC=C(c2n[nH]c3c(C#N)cccc23)C1 [Example 176, 3-(1-propyl-1,2,5,6-tetrahydropyridin-3-yl)-1H-indazole-7-carbonitrile] | > 10000 |  | 
47 | Cc1ccc2c(C3=CCCN(C)C3)n[nH]c2c1 [Example 93, 6-methyl-3-(1-methyl-1,2,5,6-tetrahydropyridin-3-yl)-1H-indazole] |  | 2920 | 
48 | FC1(F)CC(N2CCC=C(c3n[nH]c4c(Cl)cccc34)C2)C1 [Example 179, 7-chloro-3-(1-(3,3-difluorocyclobutyl)-1,2,5,6-tetrahydropyridin-3-yl)-1H-indazole] | 8620 |  | 
49 | CC(C)c1ccc2[nH]cc(C3=CCCN(C)C3)c2c1 [Example 24, 5-isopropyl-3-(1-methyl-1,2,5,6-tetrahydropyridin-3-yl)-1H-indole] |  | 105 | 
50 | C1=C(c2c[nH]c3cnccc23)CNCC1 [Example 142, 3-(1,2,5,6-tetrahydropyridin-3-yl)-1H-pyrrolo[2,3-c]pyridine] |  |  | Ki (5HT2A receptor [1]; secondary binding assay, Cheng-Prusoff, read-out: 5HT2A Ki): 152 nM
